We go through six compounds from article PMC4520450, “Procyanidins Negatively Affect the Activity of the Phosphatases of Regenerating Liver” (PLoS ONE, 2015).

The test system of one data set is Caco-2 cell model. Further details: method as in PMID 23885956. As to conditions: cited from earlier work.
A further data set deals with T1, PP1 (Oryctolagus cuniculus, UniProt P62139).
T1 construct: purchased NewEngland Biolabs; host or cells: E. coli
The data set is described as follows: DiFMUP assay for PP1. In kind it is biochemical. As for the experimental part:
(§1) Fig 2 Effect of polyphenolic compounds 8 (A), 9 (B), 10 (C) and 11 (D) on the phosphatase activity of PRL-1, PRL-2, PRL-3, PP1, and PP2A. Proteins were incubated for 30 min with 0–1000 μM of the corresponding procyandin 8–11. Phosphatase activity was measured in the presence of DiFMUP at 25°C using the concentration corresponding to the KM of each protein. The KM for PRLs was determined separately (PRL-3 = 21 μM, PRL-2 and PRL-1 = 24 μM). The KM for PP1 (91 μM) and for PP2A (100 μM) was taken from the literature. Protein concentrations are 50 nM for all PRLs and 2 mU for PP1 and 0.05 U for PP2A (see the Experimental Procedures). Phosphatase activity in the absence of inhibitors was set as 100%. Data represent means ± standard errors of the mean (n = 3–5).
(§2) BSA, which is usually supplemented to the assay buffer for stabilizing the PPs was however excluded, as BSA is known to form complexes with polyphenolic compounds [40–42] and thus would decrease the concentrations of the inhibitor in the assay. […] In contrast, the phosphatase activity of PP2A was suppressed to a much lesser extent with weak (for trimer 9 and hexamer 11) and strong statistical significance (dimer 8 and tetramer 10). Thus our results corroborate the data reported previously.
DiFMUP assay for PP1: In a final reaction volume of 100 μL PP1c (2 mU final concentration, according to manufacturer’s instructions) were incubated with decreasing concentrations of the inhibitory polyphenols for 30 minutes at 25°C. The assay buffer contained 25 mM imidazole (pH 7.4), 1 mM dithiothreitol (DTT), and 50 mM NaCl. Bovine serum albumin (BSA) was excluded due to possible binding of the polyphenolic compounds. After the incubation time 20 μL DiFMUP (6,8-Difluoro-4-methylumbelliferyl phosphate) was added to reach a final concentration of 100 μM. Monitoring of the fluorescent dephosphorylation product was monitored and data analyzed as described above.

Data set [1] has as its target T2, PRL-3 (Homo sapiens, UniProt O75365).
T2 construct: His-TEV (cleaved yes); made in house
As to the kind of experiment: DiFMUP phosphatase activity assay for PRLs. As to conditions: for IC50: 50 nM PRL-3, 30 min preincubation, 25°C, 21 μM DiFMUP, mean ± SEM (n = 3–5), read-out: IC50 (Ki) PRL-3. In kind it is biochemical. As for the experimental part:
Biochemical phosphatase activity measurements were carried out in the presence of different concentrations of various polyphenols, compounds 1–11 (Fig 1), using recombinant PRL-3 and 6,8-difluoro-4-methylumbelliferyl phosphate (DiFMUP) as a fluorogenic substrate (see the experimental procedures). We observed that the monomeric epicatechins EGC and EC inhibit PRL-3 only weakly, with a slightly better activity of EGC, which bears three hydroxyl groups at the B-ring. […] In general, as a basic structure activity-relationship the following trend was observed: a higher number of hydroxyl groups at the B-ring increased the activity slightly. […] The influence of the stereochemistry at C(2)–C(3) was studied by using GCG (the trans-epimer of EGCG).
as §1
(§3) DiFMUP assay for PRLs: In a final reaction volume of 100 μL the PRLs (50 nM final concentration) were incubated with decreasing concentrations of the inhibitory polyphenols for 30 minutes at 25°C. The buffer conditions were 108 mM TrisCl (pH 7.5), Triton 0.05% (v/v), DTT 27.0 mM, NaCl 811 mM. After the incubation time 20 μL DiFMUP (6,8-Difluoro-4-methylumbelliferyl phosphate) was added to reach a final concentration of 21 μM for PRL-3 and 24 μM for PRL-1 and PRL-2. On a Tecan safire2 (Tecan, Salzburg, Austria) plate reader dephosphorylation of the substrate to its fluorescent product was monitored by following the emission at 358 nm with excitation at 452 nm for 20 minutes. All measurements were done in triplicates, and the experiments were repeated at least three times. The slopes of the initial phases were obtained by linear regression of the data points. The normalized reaction rates were plotted versus the log of the inhibitor concentrations and the IC50 values were obtained by fitting the curves using the one site competition model of GraphPad Prism (GraphPad Software, Version 5). KM values were determined by measuring reaction kinetics of substrate dilution series. Initial velocities were plotted against DiFMUP concentration and the data was analyzed by Michaelis-Menten kinetics curve fitting of GraphPad Prism. A final DMSO content of 0.4% was maintained for the monomeric catechins. Due to the high water solubility of the procyanidins DMSO was not required and measurements were done in assay buffer only.

In a further data set the target is T3, PRL-2 (Homo sapiens, UniProt Q12974).
T3 construct: His-TEV (cleaved yes); made in house
T3 sequence (Q12974 1-167): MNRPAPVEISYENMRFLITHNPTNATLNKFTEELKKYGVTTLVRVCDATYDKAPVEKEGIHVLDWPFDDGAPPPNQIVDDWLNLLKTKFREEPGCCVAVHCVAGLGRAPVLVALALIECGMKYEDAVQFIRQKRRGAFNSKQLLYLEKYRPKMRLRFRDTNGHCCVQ
As to the kind of experiment: DiFMUP phosphatase activity assay for PRLs. It is filed as biochemical. As to conditions: 50 nM PRL-2, 30 min preincubation, 25°C, 24 μM DiFMUP; mean ± SEM (n = 3–5); read-out: IC50 (Ki) PRL-2. As to the method: as §1, §3

For data set [2], the target named is T4, PRL-1 (Homo sapiens, UniProt Q93096).
T4 construct: His-TEV (cleaved yes); made in house
T4 sequence (Q93096 1-173): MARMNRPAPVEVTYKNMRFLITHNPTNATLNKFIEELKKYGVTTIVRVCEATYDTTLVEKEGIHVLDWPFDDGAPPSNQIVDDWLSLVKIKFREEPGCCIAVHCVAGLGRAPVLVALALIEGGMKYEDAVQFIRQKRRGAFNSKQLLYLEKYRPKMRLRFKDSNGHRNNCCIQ
The data set is described as follows: DiFMUP phosphatase activity assay for PRLs. In kind it is biochemical. As to conditions: 50 nM PRL-1, 30 min preincubation, 25°C, 24 μM DiFMUP; mean ± SEM (n = 3–5); read-out: IC50 (Ki) PRL-1. As to the method: as §1, §3

Data set [3] deals with T4, PRL-1. As to the kind of experiment: DiFMUP phosphatase activity assay for PRLs. In kind it is biochemical. The following applies: Michaelis-Menten and Lineweaver-Burk analysis, DiFMUP hydrolysis.
In data set [4] the target is T5, PP2A (Homo sapiens, UniProt P67775).
T5 construct: purified from human red blood cells; purchased Merck Millipore; host or cells: human red blood cells
The data set is described as follows: DiFMUP assay for PP2A. In kind it is biochemical. The following applies: 0.05 U PP2A, 30 min preincubation, 25°C, no BSA, mean ± SEM (n = 3–5), read-out: IC50 (Ki) PP2A. As for the experimental part:
as §1, §2
Chemicals and vendors were as follows: Synthesis of Procyanidins (dimer to dodecamer) was done as previously reported. EGCG, EGC, ECG and EC were synthesized as previously reported or purchased from Sigma. (+)-Catechin and 3-(4,5-dimethylthiazol-2-yl)-2,5-diphenyltetrazolium bromide (MTT) were obtained from Sigma. 6,8-Difluoro-4-Methylumbelliferyl Phosphate (DiFMUP), propidium iodide and calcein AM were from lifescience technologies. Cell dissociation solution (10X) was purchased from amsbio. PP1c (recombinant from E. coli) was purchased from NewEngland Biolabs and PP2A (purified from human red blood cells, contains different subunits according to manufacturer) from Merck Millipore. Transwell plates (BRANDplates) and insert stripes for the migration assay were purchased from Brand GmbH. Black 96 well plates (96F Nunclon Delta) were purchased from Thermo Scientific. Transparent 96 well assay plates with UV transparent bottom were purchased from Corning Inc. Wound healing experiments were carried out with μ-dish 35 mm culture inserts, which were purchased from Ibidi.
DiFMUP assay for PP2A: In a final reaction volume of 100 μL PP2A (0.05 U final concentration, according to manufacturer’s instructions) were incubated with decreasing concentrations of the inhibitory polyphenols for 30 minutes at 25°C. The assay buffer contained 50 mM TrisCl (pH 7.5), 250 mM NaCl, 0.1 mM EDTA, 1 mM MnCl2, and 2 mM dithiothreitol (DTT). […] Monitoring of the fluorescent dephosphorylation product was monitored and data analyzed as described above.

The target of another data set is protein phosphatase-1. Set-up: method as in PMID 22260360. The following applies: cited from earlier work.
In data set [5] the test system is PP2A. Set-up: method as in PMID 22260360. The following applies: cited from earlier work.
Data set [6] addresses T2, PRL-3. Set-up: method as in PMID 20873564. The following applies: cited from earlier work.
Setting [7] is: Michaelis-Menten and Lineweaver-Burk analysis, DiFMUP hydrolysis.

T2 sequence (O75365 whole entry): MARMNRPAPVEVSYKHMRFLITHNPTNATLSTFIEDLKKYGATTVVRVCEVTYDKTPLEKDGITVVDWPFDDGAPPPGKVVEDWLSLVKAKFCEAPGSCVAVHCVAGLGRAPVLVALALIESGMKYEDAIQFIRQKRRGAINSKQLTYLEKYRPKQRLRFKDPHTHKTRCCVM
T1 sequence (P62139 whole entry): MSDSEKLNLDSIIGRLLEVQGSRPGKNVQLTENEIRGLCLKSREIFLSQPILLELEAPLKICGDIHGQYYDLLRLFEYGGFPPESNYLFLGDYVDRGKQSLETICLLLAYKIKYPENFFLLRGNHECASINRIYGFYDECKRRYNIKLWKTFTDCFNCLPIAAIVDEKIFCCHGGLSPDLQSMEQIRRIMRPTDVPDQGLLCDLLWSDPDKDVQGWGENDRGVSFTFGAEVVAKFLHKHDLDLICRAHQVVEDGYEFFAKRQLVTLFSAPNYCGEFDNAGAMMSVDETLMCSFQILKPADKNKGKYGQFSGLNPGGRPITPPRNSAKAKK
T5 sequence (P67775 whole entry): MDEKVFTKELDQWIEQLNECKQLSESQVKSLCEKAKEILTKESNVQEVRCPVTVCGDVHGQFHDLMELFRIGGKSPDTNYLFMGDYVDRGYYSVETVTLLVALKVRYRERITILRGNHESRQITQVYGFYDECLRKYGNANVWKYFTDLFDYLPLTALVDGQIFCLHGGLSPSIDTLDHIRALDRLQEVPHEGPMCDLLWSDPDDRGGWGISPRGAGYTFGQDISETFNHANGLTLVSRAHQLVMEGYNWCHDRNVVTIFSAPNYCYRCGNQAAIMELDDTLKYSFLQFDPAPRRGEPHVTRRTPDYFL
T5 sequence (P30153 2-589 partner limits assumed): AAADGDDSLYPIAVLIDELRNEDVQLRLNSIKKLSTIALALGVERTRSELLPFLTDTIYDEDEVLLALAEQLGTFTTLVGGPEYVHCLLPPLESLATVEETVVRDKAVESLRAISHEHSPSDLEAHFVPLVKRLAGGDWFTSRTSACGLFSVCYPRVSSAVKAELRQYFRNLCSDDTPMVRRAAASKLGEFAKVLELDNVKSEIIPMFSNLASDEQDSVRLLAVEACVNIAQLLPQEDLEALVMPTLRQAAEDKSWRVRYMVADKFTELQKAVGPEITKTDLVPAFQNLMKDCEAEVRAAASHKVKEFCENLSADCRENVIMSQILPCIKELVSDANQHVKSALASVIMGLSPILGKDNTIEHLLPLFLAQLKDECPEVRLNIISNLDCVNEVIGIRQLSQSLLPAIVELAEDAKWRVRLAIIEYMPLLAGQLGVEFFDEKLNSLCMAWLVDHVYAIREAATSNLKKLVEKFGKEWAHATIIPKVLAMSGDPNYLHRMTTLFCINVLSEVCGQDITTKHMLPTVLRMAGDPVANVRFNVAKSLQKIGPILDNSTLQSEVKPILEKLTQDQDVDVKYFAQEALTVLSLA

Consider `Oc1cc(O)c2c(c1)O[C@H](c1ccc(O)c(O)c1)[C@H](O)[C@H]2c1c(O)cc(O)c2c1O[C@H](c1ccc(O)c(O)c1)[C@H](O)[C@H]2c1c(O)cc(O)c2c1O[C@H](c1ccc(O)c(O)c1)[C@H](O)C2` [procyanidin C1, reference compound], for which the permeation entry in the data set with Caco-2 cell model is “no permeation was detected”.
For the compound `Oc1cc(O)c2c(c1)O[C@H](c1ccc(O)c(O)c1)[C@@H](O)[C@@H]2c1c(O)cc(O)c2c1O[C@H](c1ccc(O)c(O)c1)[C@@H](O)[C@@H]2c1c(O)cc(O)c2c1O[C@H](c1ccc(O)c(O)c1)[C@@H](O)[C@@H]2c1c(O)cc(O)c2c1O[C@H](c1ccc(O)c(O)c1)[C@@H](O)C2` [Tetramer (10)], the IC50 (as a rule, the point on the concentration scale where inhibition reaches its midpoint) is 13.8 ± 2.9 µM on PP1 (2 mU PP1c, 30 min preincubation, 25°C, DiFMUP, no BSA, mean ± SEM (n = 3–5), read-out: IC50 (Ki) PP1); 16.3 ± 2.3 µM on PRL-3 [1]; 13.4 ± 2.5 µM on PRL-2; 2.2 ± 1.1 µM on PRL-1 [2]; 77.9 ± 10.7 µM at PP2A [4]. Also, on PP1 (setting [7]), the “type of inhibition, PP1” value was “noncompetitive”. In addition, the “type of inhibition, PRL-3” value at PRL-3 [1] (setting [7]) was “noncompetitive”. The “type of inhibition, PRL-1” value at PRL-1 [3] is recorded as “noncompetitive”.
`O=C(O[C@@H]1Cc2c(O)cc(O)cc2O[C@@H]1c1cc(O)c(O)c(O)c1)c1cc(O)c(O)c(O)c1` [EGCG (4)]: the IC50 at protein phosphatase-1 is 1.35 µM; on PRL-3 [1] it was 121 ± 5.7 µM. For the same compound, on PRL-3 [1], the “increase in PRL-3 inhibition of 3-gallate ester compared to non-gallate (2 vs 1, 4 vs 3)” value is on record as “about two-fold increase”. Besides, the “activity toward PP2A relative to PP1” value with PP2A [5] is recorded as “ten-fold lower activity”.
For the compound `O=c1c(O)c(-c2ccc(O)c(O)c2)oc2c(O[C@@H]3O[C@H](CO)[C@@H](O)[C@H](O)[C@H]3O)c(O)cc(O)c12` [gossypin], the “PRL-3 phosphatase inhibition in vitro” value at PRL-3 [6] is given as “moderate phosphatase inhibition”.
In the case of `O=c1c(O)c(-c2cc(O)c(O)c(O)c2)oc2cc(O)cc(O)c12` [myricetin], the “PRL-3 phosphatase inhibition in vitro” value on PRL-3 [6] is recorded as “moderate phosphatase inhibition”.
For the compound `O=C(OC[C@H]1O[C@@H](OC(=O)c2cc(O)c(O)c(O)c2)[C@H](OC(=O)c2cc(O)c(O)c(O)c2)[C@@H](OC(=O)c2cc(O)c(O)c(O)c2)[C@@H]1OC(=O)c1cc(O)c(O)c(O)c1)c1cc(O)c(O)c(O)c1` [PGG, 1,2,3,4,6-penta-O-galloyl-beta-D-glucose, reference compound], the IC50 on protein phosphatase-1 was 0.4 µM.
